In patent publication US20060222595A1, “Nanoparticles for therapeutic and diagnostic applications” (priority 2005, published 2006):

Assay: Saturation concentration of agents on gold nanoparticles (UV-Visible absorbance)
Type: physicochemical
Experimental: The individual saturation concentrations of a monoclonal anti-VEGF antibody agent and a gemcitabine agent to gold nanoparticles were determined in the following manner. Eight tubes containing 1 ml of gold nanoparticles each were incubated with increasing concentrations of the anti-VEGF antibody for 30 minutes, followed by an aggregation assay involving incubation with 100 μl of a 10% NaCl solution. Approximately 15 min. after the addition of the NaCl solution, the UV-Visible spectra were recorded using a Shimadzu model system (UV2401 PC), and the saturation concentration of the antibody was determined.
The attachment of gemcitabine to the gold nanoparticles and the determination of its saturation concentration were performed similarly.
The saturation concentration of gemcitabine on the gold nanoparticles was determined in a similar manner. Gold nanoparticles were incubated with different concentrations of gemcitabine for 30 min., and their UV-Visible spectra were recorded. […] This shift in Ymax value with a concomitant decrease in absorbance and a broadening of the spectra may be attributed to the aggregation of gold nanoparticles upon the addition of gemcitabine beyond the 20 μg limit. […]

| SMILES | saturation concentration of dopamine on gold nanoparticles (surface plasmon resonance band, UV-visible spectroscopy) [µg/mL] | saturation concentration of gemcitabine on gold nanoparticles (absorbance maximum) (30 min incubation, UV-Visible spectra) [µg] |
| --- | --- | --- |
| NCCc1ccc(O)c(O)c1 [dopamine] | ~30 |  |
| Nc1ccn([C@@H]2O[C@H](CO)[C@@H](O)C2(F)F)c(=O)n1 [gemcitabine] |  | 20 |
